One block for each compound: values may come before it.
Columns and labels:
[1] = Inhibition of recombinant FGFR3/BAIAP2L1 (unknown origin) transduced in mouse BaF3 cells incubated for 48 hrs by Cell Titer Glo assay; assay type: cell-based; conditions: BaF3, 48 h
[2] = Inhibition of recombinant BCR/FGFR1 (unknown origin) transduced in mouse BaF3 cells incubated for 48 hrs by Cell Titer Glo assay; assay type: cell-based; conditions: BaF3, 48 h
[3] = Inhibition of recombinant BCR/FGFR2 (unknown origin) transduced in mouse BaF3 cells incubated for 48 hrs by Cell Titer Glo assay; assay type: cell-based; conditions: BaF3, 48 h
[4] = Stability in human hepatocytes assessed as half life at 1 uM incubated upto 180 mins by LC-MS/MS analysis; assay type: ADME, cell-based, Hepatocyte
[5] = system: RT112/84; assay: cells; assay type: functional, cell-based; conditions: Homo sapiens
Description: Inhibition of cell viability in human RT112/84 cells harboring FGFR3/TACC3 fusion incubated for 72 to 120 hrs by Cell Titer Glo assay

[6] = system: RT112/84; assay: cells; assay type: functional, cell-based; conditions: Homo sapiens; remark: listed apart in the source
Description: Inhibition of cell viability in human RT112/84 cells harboring FGFR3 V555M mutant incubated for 72 to 120 hrs by Cell Titer Glo assay

[7] = Inhibition of cell viability in human UMUC14 cells harboring FGFR3 S249C mutant incubated for 72 to 120 hrs by Cell Titer Glo assay; assay type: functional, cell-based
[8] = system: RT-4; assay: Inhibition of cell viability in human RT-4 cells harboring FGFR3/TACC3 fusion incubated for 72 to 120 hrs by Cell Titer Glo assay; assay type: functional, cell-based
[9] = system: KG-1; assay: Inhibition of cell viability in human KG-1 cells harboring FGFR1-fusion incubated for 72 to 120 hrs by Cell Titer Glo assay; assay type: functional, cell-based
[10] = system: DMS-114; assay: Inhibition of cell viability in human DMS-114 cells harboring FGFR1-amplification incubated for 72 to 120 hrs by Cell Titer Glo assay; assay type: functional, cell-based
[11] = Inhibition of recombinant BCR/FGFR4 (unknown origin) transduced in mouse BaF3 cells incubated for 48 hrs by Cell Titer Glo assay; assay type: cell-based; conditions: BaF3, 48 h
[12] = system: RT112/84; assay: Antitumor activity against human RT112/84 cells harboring FGFR3/TACC3 fusion xenografted in Balb/c nude mouse model at 15 mg/kg, po bid treated for 21 days relative to control; assay type: functional; conditions: RT112/84, 504 h, time 21 day, read-out: TGI
[13] = Inhibition of cell viability in human UMUC14 cells harboring FGFR3 V555M mutant incubated for 72 to 120 hrs by Cell Titer Glo assay; assay type: functional, cell-based
[14] = system: RT112/84; assay: animal or person; assay type: functional, Homo sapiens; conditions: Mus musculus, RT112/84, 504 h, route po, time 21 day, read-out: TGI
Description: Antitumor activity against human RT112/84 cells harboring FGFR3/TACC3 fusion xenografted in Balb/c nude mouse model at 12.5 mg/kg, po bid treated for 21 days relative to control

[15] = system: RT112/84; assay: animal or person; assay type: functional, Homo sapiens; conditions: Mus musculus, RT112/84, 504 h, route po, time 21 day, read-out: TGI; remark: listed apart in the source
Description: Antitumor activity against human RT112/84 cells harboring FGFR3 V555M mutant xenografted in Balb/c nude mouse model at 12.5 mg/kg, po bid treated for 21 days relative to control

half-life at 1 µM [4]: 18 min
IC50 [5]: 0.038 µM
IC50 [6]: 0.089 µM
SMILES: C[C@@H](Oc1ccc2[nH]nc(-c3ccc(N4CC5(C4)CN(S(C)(=O)=O)C5)nc3)c2c1)c1c(Cl)cnnc1Cl
IC50 [1]: 0.0086 µM
IC50 [2]: 0.179 µM
IC50 [3]: 0.067 µM
IC50 [7]: 1.58 µM
IC50 [8]: 0.144 µM
IC50 [9]: 0.193 µM
IC50 [10]: 3 µM

half-life at 1 µM [4]: > 100 min
IC50 [5]: 0.015 µM
IC50 [6]: 0.042 µM
SMILES: C[C@@H](Oc1ccc2[nH]nc(-c3ccc(N4CC5(CCN(S(C)(=O)=O)CC5)C4)nc3)c2c1)c1c(Cl)cncc1Cl
IC50 [1]: 0.014 µM
IC50 [2]: 0.212 µM
IC50 [3]: 0.127 µM
IC50 [11]: 0.147 µM
IC50 [7]: 0.015 µM
IC50 [9]: 1.57 µM
inhibition in vivo at 15 mg/kg [12]: 64%

SMILES: COc1cc(OC)cc(N(CCNC(C)C)c2ccc3ncc(-c4cnn(C)c4)nc3c2)c1 [ERDAFITINIB]
IC50 [1]: 0.0026 µM
IC50 [2]: 0.0052 µM
IC50 [3]: 0.0038 µM
IC50 [11]: 0.011 µM
IC50 [5]: 0.0036 µM
IC50 [6]: 2.15 µM
IC50 [7]: 0.0038 µM
IC50 [13]: > 3 µM
IC50 [8]: 0.0044 µM
IC50 [9]: 0.0021 µM
IC50 [10]: 0.011 µM
inhibition in vivo at 12.5 mg/kg [14]: 73%
inhibition in vivo at 12.5 mg/kg [15]: 12%

Source: ChEMBL document CHEMBL5579895, “Discovery of TYRA-300: First Oral Selective FGFR3 Inhibitor for the Treatment of Urothelial Cancers and Achondroplasia” (J Med Chem, 2024)
